Activity calls are given as the source filed them. The calls are words filed in the database; no cut-off is given here.
Assays:
[1] = target: T1, G-protein coupled receptor 35 (Homo sapiens, UniProt Q9HC97); assay: Agonist activity at GPR35 in human HT-29 cells by dynamic mass redistribution assay; type: functional, cell-based
[2] = target: T1, G-protein coupled receptor 35; assay: Desensitization of GPR35 in human HT-29 cells assessed as inhibition of zaprinast-induced dynamic mass redistribution pretreated for 1 hr followed by zaprinast stimulation; type: functional, cell-based
[3] = target: T1, G-protein coupled receptor 35; assay: Agonist activity at GPR35 in human HT-29 cells in presence of GPR35 antagonist ML-145 by dynamic mass redistribution assay; type: functional, cell-based
[4] = target: G protein-coupled receptor GPR35 (Rattus norvegicus, UniProt Q33BM1); assay: Agonist activity at recombinant rat N-terminal FLAG/eYFP-fused GPR35 expressed in HEK293 cells assessed as induction of beta-arrestin recruitment by BRET assay; type: functional, cell-based
Chain of G protein-coupled receptor GPR35 (Q33BM1 whole entry, the tested form may be a part): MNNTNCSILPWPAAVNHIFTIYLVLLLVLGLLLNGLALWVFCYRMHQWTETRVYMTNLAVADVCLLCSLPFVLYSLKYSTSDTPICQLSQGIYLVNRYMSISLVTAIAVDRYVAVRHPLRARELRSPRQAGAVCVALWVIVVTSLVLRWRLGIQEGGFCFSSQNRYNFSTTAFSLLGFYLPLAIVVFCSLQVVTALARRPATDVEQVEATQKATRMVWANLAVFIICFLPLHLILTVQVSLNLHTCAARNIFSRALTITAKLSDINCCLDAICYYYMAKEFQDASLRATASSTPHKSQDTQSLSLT

[5] = target: T1, G-protein coupled receptor 35; assay: Agonist activity at GPR35 in human HT-29 cells assessed as increase in ERK1/2 phosphorylation at 0.1 to 1 uM after 15 mins by Western blot analysis; type: functional, cell-based
[6] = target: T1, G-protein coupled receptor 35; assay: Agonist activity at GPR35 in human HT-29 cells assessed as increase in ERK1/2 phosphorylation at 0.1 to 1 uM pretreated for 10 mins followed by GPR35 antagonist ML-145 addition measured after 5 mins by Western blot analysis; type: functional, cell-based
[7] = target: T1, G-protein coupled receptor 35; assay: Agonist activity at recombinant human N-terminal FLAG/eYFP-fused GPR35a expressed in CHOK1 cells assessed as induction of beta-arrestin recruitment by path hunter assay; type: cell-based

T1 sequence (Q9HC97 whole entry): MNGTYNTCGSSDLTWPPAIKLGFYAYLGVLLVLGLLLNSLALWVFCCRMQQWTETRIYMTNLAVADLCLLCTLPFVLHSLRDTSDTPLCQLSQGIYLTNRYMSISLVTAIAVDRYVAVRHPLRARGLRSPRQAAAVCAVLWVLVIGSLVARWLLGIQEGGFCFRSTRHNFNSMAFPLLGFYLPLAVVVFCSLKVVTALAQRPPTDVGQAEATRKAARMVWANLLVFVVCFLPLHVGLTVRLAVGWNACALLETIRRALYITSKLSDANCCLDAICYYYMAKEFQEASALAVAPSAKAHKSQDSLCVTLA

Structure (SMILES)	Activity [1]	EC50 ([1]; read-out: EC50) [µM]	Activity [3]	EC50 [4] [µM]	Activity [5]	Activity [6]	EC50 ([1]; ht-29)	EC50 [7] [µM]	IC50 [2] [µM]
Cc1cccc(C(=O)Nc2cc(Br)ccc2-c2nnn[nH]2)c1	Dose-dependent effect	0.86	inactive	–	–	–	–	–	0.36
O=C(Nc1cc(Br)ccc1-c1nnn[nH]1)c1cccc(F)c1	Dose-dependent effect	0.61	inactive	–	–	–	–	–	0.21
COc1ccccc1C(=O)Nc1cc(Br)ccc1-c1nnn[nH]1	Dose-dependent effect	0.86	inactive	–	–	–	–	–	0.4
COc1cccc(C(=O)Nc2cc(Br)ccc2-c2nnn[nH]2)c1	Dose-dependent effect	1.94	inactive	–	–	–	–	–	0.81
Cc1cccn2c(=O)c(-c3nnn[nH]3)cnc12 [PEMIROLAST]	–	–	–	0.095	–	–	–	–	–
O=C(Nc1cc(Br)ccc1-c1nnn[nH]1)c1ccco1	Dose-dependent effect	1.06	inactive	–	–	–	–	–	0.44
COc1ccc(C(=O)Nc2ccccc2-c2nn[nH]n2)cc1	Dose-dependent effect	0.65	inactive	–	–	–	–	–	0.28
Nc1ccc(Br)cc1-c1nnn[nH]1	Dose-dependent effect	44.1	inactive	–	–	–	–	–	75.3
O=C(Nc1cc(Br)ccc1-c1nnn[nH]1)c1ccc(C(F)(F)F)cc1	Dose-dependent effect	3.65	inactive	–	–	–	–	–	1.36
CCC(=O)Nc1cc(Br)ccc1-c1nnn[nH]1	Dose-dependent effect	0.62	inactive	–	–	–	–	–	0.7
COc1ccc(C(=O)Nc2ccc(-c3nnn[nH]3)cc2)cc1	Dose-dependent effect	17.6	inactive	–	–	–	–	–	8.36
COc1ccc(C(=O)Nc2ccccc2C#N)cc1	–	–	inactive	–	–	–	Not Active	–	–
O=C(Nc1cc(Br)ccc1-c1nnn[nH]1)c1ccccc1	Dose-dependent effect	0.87	inactive	–	–	–	–	–	0.3
O=C1c2ccccc2S(=O)(=O)c2cc(-c3nnn[nH]3)ccc21 [DOXANTRAZOLE]	–	–	–	–	–	–	–	3.4	–
Cc1ccc(C(=O)Nc2cc(Br)ccc2-c2nnn[nH]2)cc1	Dose-dependent effect	1.33	inactive	–	–	–	–	–	0.51
Cc1ccccc1C(=O)Nc1cc(Br)ccc1-c1nnn[nH]1	Dose-dependent effect	2.05	inactive	–	–	–	–	–	0.81
COc1ccc(C(=O)Nc2cc(Br)ccc2-c2nnn[nH]2)cc1OC	Dose-dependent effect	0.83	inactive	–	–	–	–	–	0.26
O=C(Nc1cc(Br)ccc1-c1nnn[nH]1)c1cccc(Cl)c1	Dose-dependent effect	2.18	inactive	–	–	–	–	–	0.48
O=C(Nc1cc(Br)ccc1-c1nnn[nH]1)c1cccc(C(F)(F)F)c1	Dose-dependent effect	4.6	inactive	–	–	–	–	–	1.28
O=C(Nc1cc(Br)ccc1-c1nnn[nH]1)c1ccccc1Cl	Dose-dependent effect	0.87	inactive	–	–	–	–	–	0.41

Further compounds by falling EC50 ([1]; read-out: EC50), results first:

Activity [1]	EC50 ([1]; read-out: EC50) [µM]	Activity [3]	EC50 [4] [µM]	Activity [5]	Activity [6]	EC50 ([1]; ht-29)	EC50 [7] [µM]	Structure (SMILES)	IC50 [2] [µM]
Dose-dependent effect	0.52	inactive	–	–	–	–	–	O=C(Nc1cc(Br)ccc1-c1nnn[nH]1)c1ccc(Cl)cc1	0.21
Dose-dependent effect	0.51	inactive	–	–	–	–	–	O=C(Nc1cc(Br)ccc1-c1nnn[nH]1)c1cccs1	0.26
Dose-dependent effect	0.45	inactive	–	–	–	–	–	O=C(Nc1cc(Br)ccc1-c1nnn[nH]1)c1ccc(F)cc1	0.16
Dose-dependent effect	0.44	inactive	–	–	–	–	–	O=C(Nc1cc(Br)ccc1-c1nnn[nH]1)C1CCCCC1	0.2
Dose-dependent effect	0.38	inactive	–	–	–	–	–	CC(C)C(=O)Nc1cc(Br)ccc1-c1nnn[nH]1	0.28
Dose-dependent effect	0.35	inactive	–	–	–	–	–	O=C(Nc1cc(Br)ccc1-c1nnn[nH]1)c1ccccc1F	0.17
Dose-dependent effect	0.31	inactive	–	–	–	–	–	O=C(Nc1cc(Br)ccc1-c1nnn[nH]1)c1ccc(Cl)cc1Cl	0.11
Dose-dependent effect	0.3	inactive	–	–	–	–	–	COc1ccc(C(=O)Nc2ccc(Br)cc2-c2nnn[nH]2)cc1	0.11
Dose-dependent effect	0.2	inactive	–	–	–	–	–	COc1ccc(C(=O)Nc2cc(F)ccc2-c2nnn[nH]2)cc1	0.082
Dose-dependent effect	0.13	inactive	–	Active	inactive	–	–	O=C(Nc1cc(Br)ccc1-c1nnn[nH]1)c1ccc(F)cc1F	0.06
Dose-dependent effect	0.059	inactive	–	Active	inactive	–	–	COc1ccc(C(=O)Nc2cc(Br)ccc2-c2nnn[nH]2)cc1	0.026
Dose-dependent effect	0.041	inactive	–	–	–	–	–	COc1ccc(C(=O)Nc2cc(Br)ccc2-c2nnn[nH]2)c(F)c1	0.014
